Assay [1] has as its system NIH/3T3 BTK C481S cells. The assay is described as follows: Phosphor-BTK(Y223) assay, adherent cells. The assay is classed as cell-based. As to conditions: Mus musculus, NIH3T3, phosphorylated BTK Y223, NIH/3T3 BTK C481S cells; read-out: NIH/3T3 BTK-C481S pBTK. Put shortly: (§1)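 NIH/3T3 cells expressing WT or C481S BTK were pretreated with compound for 0.5 h at 37 °C, then stimulated with 1 mM Na3VO4 (final) for 2 h. Lysates were assayed by HTRF for p-BTK Y223 using the 665/620 nm ratio. IC50 was obtained by nonlinear fit of % inhibition versus 0.5% DMSO control.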

Assay [2] deals with NIH/3T3 BTK WT cells. The assay can be described thus: Phosphor-BTK(Y223) assay, adherent cells. Format: cell-based. As to conditions: Mus musculus, NIH3T3, phosphorylated BTK Y223, NIH/3T3 BTK WT cells; read-out: NIH/3T3 BTK-WT pBTK. Put shortly: as §1

pIC50: −log10 of the molar value.

Take `COCCOc1ccc(-c2cnc(-c3ccc(CNC(=O)c4cc(F)ccc4OC)cc3)c3c(N)n[nH]c23)nc1` [Example 59, N-(4-(3-amino-7-(5-(2-methoxyethoxy)pyridin-2-yl)-1H-pyrazolo[4,3-c]pyridin-4-yl)benzyl)-5-fluoro-2-methoxybenzamide]: the pIC50 in assay [1] and in assay [2] was ≥ 8.30 in each case.
For the molecule `COc1ccc(F)cc1C(=O)NCc1ccc(-c2ncc(-c3ccc(OCCN(C)C)cn3)c3[nH]nc(N)c23)cc1` [Example 60, N-(4-(3-amino-7-(5-(2-(dimethylamino)ethoxy)pyridin-2-yl)-1H-pyrazolo[4,3-c]pyridin-4-yl)benzyl)-5-fluoro-2-methoxybenzamide], the pIC50 in assay [1] and in assay [2] was ≥ 8.30 each time.
In the case of `COc1ccc(F)cc1C(=O)NCc1ccc(-c2ncc(-c3ccc(OCCN4CCOCC4)cn3)c3[nH]nc(N)c23)cc1` [Example 61, N-(4-(3-amino-7-(5-(2-morpholinoethoxy)pyridin-2-yl)-1H-pyrazolo[4,3-c]pyridin-4-yl)benzyl)-5-fluoro-2-methoxybenzamide], the pIC50 in assay [1] and in assay [2] was ≥ 8.30 throughout.
With `COc1ccc(F)cc1C(=O)NCc1ccc(-c2ncc(-c3ccc(OCCN4CCCC4)cn3)c3[nH]nc(N)c23)cc1` [Example 62, N-(4-(3-amino-7-(5-(2-(pyrrolidin-1-yl)ethoxy)pyridin-2-yl)-1H-pyrazolo[4,3-c]pyridin-4-yl)benzyl)-5-fluoro-2-methoxybenzamide], the pIC50 in assay [1] and in assay [2] was ≥ 8.30 throughout.
In the case of `COc1ccc(F)cc1C(=O)NCc1ccc(-c2ncc(-c3ccc(C(C)(C)O)cn3)c3[nH]nc(N)c23)cc1` [Example 65, N-(4-(3-amino-7-(5-(2-hydroxypropan-2-yl)pyridin-2-yl)-1H-pyrazolo[4,3-c]pyridin-4-yl)benzyl)-5-fluoro-2-methoxybenzamide], the pIC50 in assay [1] was 8.00 to 8.30; in assay [2], ≥ 8.30.
For the molecule `COc1ccc(F)cc1C(=O)NCc1ccc(-c2ncc(-c3ccc(CN4CCCCC4)cn3)c3[nH]nc(N)c23)cc1` [Example 66, N-(4-(3-amino-7-(5-(piperidin-1-ylmethyl)pyridin-2-yl)-1H-pyrazolo[4,3-c]pyridin-4-yl)benzyl)-5-fluoro-2-methoxybenzamide], the pIC50 in assay [1] and in assay [2] was ≥ 8.30 throughout.
As to `COc1ccc(F)cc1C(=O)NCc1ccc(-c2ncc(-c3ccc(CN4CCOCC4)cn3)c3[nH]nc(N)c23)cc1` [Example 67, N-(4-(3-amino-7-(5-(morpholinomethyl)pyridin-2-yl)-1H-pyrazolo[4,3-c]pyridin-4-yl)benzyl)-5-fluoro-2-methoxybenzamide], the pIC50 in assay [1] and in assay [2] was ≥ 8.30 each time.
For the molecule `COc1ccc(F)cc1C(=O)NCc1ccc(-c2ncc(-c3ccc(CN4CCN(C)CC4)cn3)c3[nH]nc(N)c23)cc1` [Example 68, N-(4-(3-amino-7-(5-((4-methylpiperazin-1-yl)methyl)pyridin-2-yl)-1H-pyrazolo[4,3-c]pyridin-4-yl)benzyl)-5-fluoro-2-methoxybenzamide], the pIC50 in assay [1] and in assay [2] was ≥ 8.30 each time.
As to `COc1ccc(F)cc1C(=O)NCc1ccc(-c2ncc(-c3cc4ccccn4n3)c3[nH]nc(N)c23)cc1` [Example 69, N-(4-(3-amino-7-(pyrazolo[1,5-a]pyridin-2-yl)-1H-pyrazolo[4,3-c]pyridin-4-yl)benzyl)-5-fluoro-2-methoxybenzamide], the pIC50 in assay [1] and in assay [2] was ≥ 8.30 throughout.
Consider `COc1ccc(F)cc1C(=O)NCc1ccc(-c2ncc(-c3cnn4cccnc34)c3[nH]nc(N)c23)cc1` [Example 70, N-(4-(3-amino-7-(pyrazolo[1,5-a]pyrimidin-3-yl)-1H-pyrazolo[4,3-c]pyridin-4-yl)benzyl)-5-fluoro-2-methoxybenzamide], for which the pIC50 in assay [1] and in assay [2] was ≥ 8.30 throughout.
For `COc1ccc(F)cc1C(=O)NCc1ccc(-c2ncc(-c3cc4n(n3)CCN(C)C4)c3[nH]nc(N)c23)cc1` [Example 71, N-(4-(3-amino-7-(5-methyl-4,5,6,7-tetrahydropyrazolo[1,5-a]pyrazin-2-yl)-1H-pyrazolo[4,3-c]pyridin-4-yl)benzyl)-5-fluoro-2-methoxybenzamide], the pIC50 in assay [1] and in assay [2] was ≥ 8.30 throughout.
Regarding `CCN1CCn2nc(-c3cnc(-c4ccc(CNC(=O)c5cc(F)ccc5OC)cc4)c4c(N)n[nH]c34)cc2C1` [Example 72, N-(4-(3-amino-7-(5-ethyl-4,5,6,7-tetrahydropyrazolo[1,5-a]pyrazin-2-yl)-1H-pyrazolo[4,3-c]pyridin-4-yl)benzyl)-5-fluoro-2-methoxybenzamide], the pIC50 in assay [1] and in assay [2] was ≥ 8.30 each time.
In the case of `COc1ccc(F)cc1C(=O)NCc1ccc(-c2ncc(-c3ccc(N4CCN(C)CC4)cn3)c3[nH]nc(N)c23)cc1` [Example 73, N-(4-(3-amino-7-(5-(4-methylpiperazin-1-yl)pyridin-2-yl)-1H-pyrazolo[4,3-c]pyridin-4-yl)benzyl)-5-fluoro-2-methoxybenzamide], the pIC50 in assay [1] and in assay [2] was ≥ 8.30 each time.
In the case of `COc1ccc(F)cc1C(=O)NCc1ccc(-c2ncc(-c3ccc(N4CCN(C)C[C@@H]4C)cn3)c3[nH]nc(N)c23)cc1` [Example 74, (S)-N-(-4-(3-amino-7-(5-(2,4-dimethylpiperazin-1-yl)pyridin-2-yl) 1H-pyrazolo[4,3-c]pyridin-4-yl)benzyl)-5-fluoro-2-methoxybenzamide], the pIC50 in assay [1] and in assay [2] was ≥ 8.30 throughout.
Turning to `COc1ccc(F)cc1C(=O)NCc1ccc(-c2ncc(-c3ccc(N4CCN(C)C[C@H]4C)cn3)c3[nH]nc(N)c23)cc1` [Example 75, (R)-N-(-4-(3-amino-7-(5-(2,4-dimethylpiperazin-1-yl)pyridin-2-yl) 1H-pyrazolo[4,3-c]pyridin-4-yl)benzyl)-5-fluoro-2-methoxybenzamide], the pIC50 in assay [1] and in assay [2] was ≥ 8.30 throughout.
On to `COc1ccc(F)cc1C(=O)NCc1ccc(-c2ncc(-c3ccc(N4CCOCC4)cn3)c3[nH]nc(N)c23)cc1` [Example 76, N-(4-(3-amino-7-(5-morpholinopyridin-2-yl)-1H-pyrazolo[4,3-c]pyridin-4-yl)benzyl)-5-fluoro-2-methoxybenzamide], for which the pIC50 in assay [1] and in assay [2] was ≥ 8.30 throughout.
On to `COc1ccc(F)cc1C(=O)NCc1ccc(-c2ncc(-c3nccn4cccc34)c3[nH]nc(N)c23)cc1` [Example 77, N-(4-(3-amino-7-(pyrrolo[1,2-a]pyrazin-1-yl)-1H-pyrazolo[4,3-c]pyridin-4-yl)benzyl)-5-fluoro-2-methoxybenzamide], for which the pIC50 in assay [1] and in assay [2] was ≥ 8.30 in each case.
Regarding `COc1ccc(F)cc1C(=O)NCc1ccc(-c2ncc(-c3cc4cnccn4n3)c3[nH]nc(N)c23)cc1` [Example 78, N-(4-(3-amino-7-(pyrazolo[1,5-a]pyrazin-2-yl)-1H-pyrazolo[4,3-c]pyridin-4-yl)benzyl)-5-fluoro-2-methoxybenzamide], the pIC50 in assay [1] and in assay [2] was ≥ 8.30 each time.
In the case of `COc1ccc(F)cc1C(=O)NCc1ccc(-c2ncc(-c3ccc(NC(=O)C4CC4)cn3)c3[nH]nc(N)c23)cc1` [Example 79, N-(4-(3-amino-7-(5-(cyclopropaneformamido)pyridin-2-yl)-1H-pyrazolo[4,3-c]pyridin-4-yl)benzyl)-5-fluoro-2-methoxybenzamide], the pIC50 in assay [1] was 7.30 to 8.00; in assay [2], 8.00 to 8.30.
For `COc1ccc(F)cc1C(=O)NCc1ccc(-c2ncc(-c3cc(NC(=O)C4CC4)ccn3)c3[nH]nc(N)c23)cc1` [Example 80, N-(4-(3-amino-7-(4-(cyclopropaneformamido)pyridin-2-yl)-1H-pyrazolo[4,3-c]pyridin-4-yl)benzyl)-5-fluoro-2-methoxybenzamide], in that order: 8.00 to 8.30 and 8.00 to 8.30.
On to `COc1ccc(F)cc1C(=O)NCc1ccc(-c2ncc(-c3ccc(F)cn3)c3[nH]nc(N)c23)c(F)c1` [Example 82, N-(4-(3-amino-7-(5-fluoropyridin-2-yl)-1H-pyrazolo[4,3-c]pyridin-4-yl)-3-fluorobenzyl)-5-fluoro-2-methoxybenzamide], for which the pIC50 in assay [1] and in assay [2] was ≥ 8.30 each time.
In the case of `COc1ccc(F)cc1C(=O)NCc1ccc(-c2nc(C)c(-c3ncccn3)c3[nH]nc(N)c23)cc1` [Example 84, N-(4-(3-amino-6-methyl-7-(pyrimidin-2-yl)-1H-pyrazolo[4,3-c]pyridin-4-yl)benzyl)-5-fluoro-2-methoxybenzamide], the pIC50 in assay [1] is 7.30 to 8.00; in assay [2] it was 8.00 to 8.30.
For `COc1ccc(F)cc1C(=O)NCc1ccc(-c2nc(C(F)F)c(-c3ncccn3)c3[nH]nc(N)c23)cc1` [Example 85, N-(4-(3-amino-6-(difluoromethyl)-7-(pyrimidin-2-yl)-1H-pyrazolo[4,3-c]pyridin-4-yl)benzyl)-5-fluoro-2-methoxybenzamide], in that order: 8.00 to 8.30 and ≥ 8.30.
Regarding `COc1ccc(F)cc1C(=O)NCc1ccc(-c2nc(C3CCSCC3)cc3[nH]nc(N)c23)cc1` [Example 91, N-(4-(3-amino-6-(tetrahydro-2H-thiopyran-4-yl)-1H-pyrazolo[4,3-c]pyridin-4-yl)benzyl)-5-fluoro-2-methoxybenzamide], the values for the pIC50 in assay [1] and in assay [2] were 8.00 to 8.30 and ≥ 8.30, respectively.
For `C=CC(=O)N1CCCC(c2cc3[nH]nc(N)c3c(-c3ccc(CNC(=O)c4cc(F)ccc4OC)cc3)n2)C1` (centres unmarked) [Example 96, N-(4-(6-(1-acryloylpiperidin-3-yl)-3-amino-1H-pyrazolo[4,3-c]pyridin-4-yl)benzyl)-5-fluoro-2-methoxybenzamide], in that order: < 7.30 and 7.30 to 8.00.
